The values that follow are results of earlier work, collected in PubChem BioAssay AID1259409 (Chemical Carcinogenesis Research Information System (CCRIS), 2018).

The subject of the data set is rodent chemically induced tumor inhibition, incidence and multiplicity. As to the kind of experiment: CCRIS tumor inhibitor studies.

For `C/C(=C\c1ccc(C(=O)O)cc1)c1ccc2c(c1)C(C)(C)CCS2`, the “tumour outcome (control, treated, inhibition, significance)” value reads like this: (Carcinogen: 7,12-DIMETHYLBENZ[A]ANTHRACENE, 57-97-6, Dose [Inhibitor]: 1.7 NMOL IN 0.2 ML ACETONE 1 HR PRIOR TO EACH PROMOTER DOSE FOR 12 WK (STUDY DURATION: 14 WK), Route [Inhibitor]: DERMAL, Species: MOUSE, Strain/Sex: SENCAR/FEMALE, Target Tissue: Type of Lesion: SKIN: PAPILLOMA, Dose [Carcinogen]: 200 NMOL IN 0.2 ML ACETONE ONCE, Promoter: 12-O-TETRADECANOYLPHORBOL-13-ACETATE, 16561-29-8) 100%, 100%, 0%, not calculated; (Carcinogen: 7,12-DIMETHYLBENZ[A]ANTHRACENE, 57-97-6, Dose [Inhibitor]: 1.7 NMOL IN 0.2 ML ACETONE 1 HR PRIOR TO EACH PROMOTER DOSE FOR 20 WK (STUDY DURATION: 22 WK), Route [Inhibitor]: DERMAL, Species: MOUSE, Strain/Sex: CD-1/FEMALE, Target Tissue: Type of Lesion: SKIN: PAPILLOMA, Dose [Carcinogen]: 200 NMOL IN 0.2 ML ACETONE ONCE, Promoter: 12-O-TETRADECANOYLPHORBOL-13-ACETATE, 16561-29-8) 94%, 93%, 1%, not calculated; (Carcinogen: 7,12-DIMETHYLBENZ[A]ANTHRACENE, 57-97-6, Dose [Inhibitor]: 17 NMOL IN 0.2 ML ACETONE 1 HR PRIOR TO EACH PROMOTER DOSE FOR 12 WK (STUDY DURATION: 14 WK), Route [Inhibitor]: DERMAL, Species: MOUSE, Strain/Sex: SENCAR/FEMALE, Target Tissue: Type of Lesion: SKIN: PAPILLOMA, Dose [Carcinogen]: 200 NMOL IN 0.2 ML ACETONE ONCE, Promoter: 12-O-TETRADECANOYLPHORBOL-13-ACETATE, 16561-29-8) 100%, 90%, 10%, not calculated; (Carcinogen: 7,12-DIMETHYLBENZ[A]ANTHRACENE, 57-97-6, Dose [Inhibitor]: 17 NMOL IN 0.2 ML ACETONE 1 HR PRIOR TO EACH PROMOTER DOSE FOR 20 WK (STUDY DURATION: 22 WK), Route [Inhibitor]: DERMAL, Species: MOUSE, Strain/Sex: CD-1/FEMALE, Target Tissue: Type of Lesion: SKIN: PAPILLOMA, Dose [Carcinogen]: 200 NMOL IN 0.2 ML ACETONE ONCE, Promoter: 12-O-TETRADECANOYLPHORBOL-13-ACETATE, 16561-29-8) 94%, 38%, 60%, not calculated; (Carcinogen: 7,12-DIMETHYLBENZ[A]ANTHRACENE, 57-97-6, Dose [Inhibitor]: 170 NMOL IN 0.2 ML ACETONE 1 HR PRIOR TO EACH PROMOTER DOSE FOR 12 WK (STUDY DURATION: 14 WK), Route [Inhibitor]: DERMAL, Species: MOUSE, Strain/Sex: SENCAR/FEMALE, Target Tissue: Type of Lesion: SKIN: PAPILLOMA, Dose [Carcinogen]: 200 NMOL IN 0.2 ML ACETONE ONCE, Promoter: 12-O-TETRADECANOYLPHORBOL-13-ACETATE, 16561-29-8) 100%, 38%, 62%, not calculated; (Carcinogen: 7,12-DIMETHYLBENZ[A]ANTHRACENE, 57-97-6, Dose [Inhibitor]: 170 NMOL IN 0.2 ML ACETONE 1 HR PRIOR TO EACH PROMOTER DOSE FOR 20 WK (STUDY DURATION: 22 WK), Route [Inhibitor]: DERMAL, Species: MOUSE, Strain/Sex: CD-1/FEMALE, Target Tissue: Type of Lesion: SKIN: PAPILLOMA, Dose [Carcinogen]: 200 NMOL IN 0.2 ML ACETONE ONCE, Promoter: 12-O-TETRADECANOYLPHORBOL-13-ACETATE, 16561-29-8) 94%, 24%, 74%, not calculated.

With `COC(=O)c1cc(O)c(O)c(O)c1`, the “tumour outcome (control, treated, inhibition, significance)” value reads like this: (Carcinogen: 7,12-DIMETHYLBENZ[A]ANTHRACENE, 57-97-6, Dose [Inhibitor]: 0, 20 UMOL IN 0.4 ML ACETONE 20 MIN PRIOR TO EACH PROMOTER DOSE (STUDY DURATION: 47 WK), Route [Inhibitor]: DERMAL, Species: MOUSE, Strain/Sex: CF-1/FEMALE, Target Tissue: Type of Lesion: SKIN: CARCINOMA, Dose [Carcinogen]: 100 NMOL IN 0.2 ML ACETONE ONCE) 67%, 24%, 64%, not calculated; (Carcinogen: 7,12-DIMETHYLBENZ[A]ANTHRACENE, 57-97-6, Dose [Inhibitor]: 0, 20 UMOL IN 0.4 ML ACETONE 20 MIN PRIOR TO EACH PROMOTER DOSE (STUDY DURATION: 47 WK), Route [Inhibitor]: DERMAL, Species: MOUSE, Strain/Sex: CF-1/FEMALE, Target Tissue: Type of Lesion: SKIN: PAPILLOMA, Dose [Carcinogen]: 100 NMOL IN 0.2 ML ACETONE ONCE) 94%, 84%, 11%, p<0.025.

Take `COc1cc(C2OCC3C(c4ccc5c(c4)OCO5)OCC23)ccc1O` (stereo not drawn): the “tumour outcome (control, treated, inhibition, significance)” value (Carcinogen: 7,12-DIMETHYLBENZ[A]ANTHRACENE, 57-97-6, Dose [Inhibitor]: 0, 85 NMOL IN 0.1 ML ACETONE 2/WK FOR 20 WK APPLIED 1 HR PRIOR TO EACH PROMOTER DOSE (STUDY DURATION: 20 WK), Route [Inhibitor]: DERMAL, Species: MOUSE, Strain/Sex: ICR/FEMALE, Target Tissue: Type of Lesion: SKIN: PAPILLOMA, Dose [Carcinogen]: 100 UG IN 0.1 ML ACETONE ONCE, Promoter: 12-O-TETRADECANOYLPHORBOL-13-ACETATE, 16561-29-8) was 100%, 80%, 20%, not calculated.

As for `C=CCSC`, where the note is “Carcinogen: 7,12-DIMETHYLBENZ[A]ANTHRACENE, 57-97-6, Dose [Inhibitor]: 0, 1.8 MMOL/KG BW IN CORN OIL 96, 48 AND 24 HR PRIOR TO CARCINOGEN TREATMENT (STUDY DURATION: 25 WK), Route [Inhibitor]: GAVAGE, Species: RAT, Strain/Sex: SPRAGUE-DAWLEY/FEMALE, Target Tissue: Type of Lesion: MAMMARY GLAND: ADENOCARCINOMA, Dose [Carcinogen]: 10 MG ONCE, Promoter: NONE USED”, the “tumour outcome (control, treated, inhibition, significance)” value is 92%, 72%, 22%, p<0.05.

For the compound `CC(C)=CCC/C(C)=C/Cc1cc2ccc(=O)oc2cc1O`, the “tumour outcome (control, treated, inhibition, significance)” value (Carcinogen: 7,12-DIMETHYLBENZ[A]ANTHRACENE, 57-97-6, Dose [Inhibitor]: 0, 400 NMOL ONCE APPLIED 5 MIN PRIOR TO CARCINOGEN DOSE (STUDY DURATION: 25 WK), Route [Inhibitor]: DERMAL, Species: MOUSE, Strain/Sex: SENCAR, Target Tissue: Type of Lesion: SKIN: PAPILLOMA, Dose [Carcinogen]: 10 NMOL ONCE, Promoter: 12-O-TETRADECANOYLPHORBOL-13-ACETATE, 16561-29-8) is reported as 96%, 96%, 0%, not significant; the “tumour outcome (control, treated, inhibition, significance)” value (Carcinogen: 7-12-DIMETHYLBENZ[A]ANTHRACENE, 57-97-6, Dose [Inhibitor]: 0, 1200 NMOL ONCE APPLIED 5 MIN PRIOR TO CARCINOGEN DOSE (STUDY DURATION: 25 WK), Route [Inhibitor]: DERMAL, Species: MOUSE, Strain/Sex: SENCAR, Target Tissue: Type of Lesion: SKIN: PAPILLOMA, Dose [Carcinogen]: 10 NMOL ONCE, Promoter: 12-O-TETRADECANOYLPHORBOL-13-ACETATE, 16561-29-8) is 93%, 96%, -3%, not significant; the “tumour outcome (control, treated, inhibition, significance)” value (Carcinogen: BENZO[A]PYRENE, 50-32-8, Dose [Inhibitor]: 0, 400 NMOL ONCE APPLIED 5 MIN PRIOR TO CARCINOGEN DOSE (STUDY DURATION: 25 WK), Route [Inhibitor]: DERMAL, Species: MOUSE, Strain/Sex: SENCAR, Target Tissue: Type of Lesion: SKIN: PAPILLOMA, Dose [Carcinogen]: 200 NMOL ONCE, Promoter: 12-O-TETRADECANOYLPHORBOL-13-ACETATE, 16561-29-8) is 91%, 91%, 0%, not significant; the “tumour outcome (control, treated, inhibition, significance)” value (Carcinogen: BENZO[A]PYRENE, 50-32-8, Dose [Inhibitor]: 0, 1200 NMOL ONCE APPLIED 5 MIN PRIOR TO CARCINOGEN DOSE (STUDY DURATION: 25 WK), Route [Inhibitor]: DERMAL, Species: MOUSE, Strain/Sex: SENCAR, Target Tissue: Type of Lesion: SKIN: PAPILLOMA, Dose [Carcinogen]: 200 NMOL ONCE, Promoter: 12-O-TETRADECANOYLPHORBOL-13-ACETATE, 16561-29-8) is 92%, 93%, -1%, not significant.

Regarding `CSC(=S)NCc1c[nH]c2ccccc12`, the “tumour outcome (control, treated, inhibition, significance)” value by setting is: (Carcinogen: 7,12-DIMETHYLBENZ[A]ANTHRACENE, 57-97-6, Dose [Inhibitor]: 0, 0.5% IN 0.2 ML ACETONE APPLIED 1 HR PRIOR TO PROMOTER DOSE 2/WK FOR 12 WK (STUDY DURATION: 90 D), Route [Inhibitor]: DERMAL, Species: MOUSE, Strain/Sex: CD-1/MALE, Target Tissue: Type of Lesion: SKIN: TUMOR, Dose [Carcinogen]: 50 UG IN 0.2 ML ACETONE ONCE, Promoter: 12-O-TETRADECANOYLPHORBOL-13-ACETATE, 16561-29-8) 95%, 65%, 32%, not significant; (Carcinogen: 7,12-DIMETHYLBENZ[A]ANTHRACENE, 57-97-6, Dose [Inhibitor]: 0, 1% IN 0.2 ML ACETONE APPLIED 1 HR PRIOR TO PROMOTER DOSE 2/WK FOR 12 WK (STUDY DURATION: 90 D), Route [Inhibitor]: DERMAL, Species: MOUSE, Strain/Sex: CD-1/MALE, Target Tissue: Type of Lesion: SKIN: TUMOR, Dose [Carcinogen]: 50 UG IN 0.2 ML ACETONE ONCE, Promoter: 12-O-TETRADECANOYLPHORBOL-13-ACETATE, 16561-29-8) 95%, 50%, 50%, p<0.03; (Carcinogen: 7,12-DIMETHYLBENZ[A]ANTHRACENE, 57-97-6, Dose [Inhibitor]: 0, 1% IN 0.2 ML ACETONE APPLIED 1 HR PRIOR TO PROMOTER DOSE 2/WK FOR 12 WK BEGINNING 5 D PRIOR TO CARCINOGEN DOSE (STUDY, Route [Inhibitor]: DERMAL, Species: MOUSE, Strain/Sex: CD-1/MALE, Target Tissue: Type of Lesion: SKIN: TUMOR, Dose [Carcinogen]: 50 UG IN 0.2 ML ACETONE ONCE, Promoter: 12-O-TETRADECANOYLPHORBOL-13-ACETATE, 16561-29-8) 95%, 55%, 42%, p<0.03.

In the case of `COc1ccc(-c2oc3c(OC)c(OC)c(OC)c(OC)c3c(=O)c2OC)cc1OC`, where the note is “Carcinogen: 7,12-DIMETHYLBENZ[A]ANTHRACENE [57-97-6], Dose [Inhibitor]: 85 NMOL IN 0.1 ML ACETONE 2X/WK FOR 20 WK 1 HR PRIOR TO EACH PROMOTER DOSE (STUDY DURATION: 21 WK), Route [Inhibitor]: DERMAL, Species: MOUSE, Strain/Sex: ICR/FEMALE, Target Tissue: Type of Lesion: SKIN: PAPILLOMA, Dose [Carcinogen]: 390 NMOL IN 0.1 ML ACETONE ONCE (STUDY DURATION: 21 WK), Promoter: 12-O-TETRADECANOYL-13-ACETATE [16561-29-8]”, the “tumour outcome (control, treated, inhibition, significance)” value is on record as 100%, 80%, 20%, not calculated.
